Values of other authors as cited in publication PMC3845828 (Clinical cancer research : an official journal of the …, 2012).

Assays:
[1] = tested on: RAGE / S100P; conditions: ref [15]
[2] = tested on: cancer cells; conditions: pretreatment of cancer cells in vitro, experimental in vivo model; ref [8]
[3] = tested on: HMGB-1 binding to RAGE; conditions: in vitro; ref [8]

HMGB-1-derived peptide: peptide consisting of residues 150–183 of HMGB-1 (end of the B-box and its linker to the acidic tail) (KLKEKYEKDIAAYRAKGKPDAAKKGVVKAEKSKK; UniProt P09429 150-183, looked up, fragment)
binding and activation of RAGE by S100P [1]: blocked the binding and activation of RAGE by S100P | migration and metastasis of cancer cells pretreated with peptide [2]: successfully blocked their subsequent migration and their metastasis | competition with HMGB-1 binding to RAGE [3]: successfully compete with HMGB-1 binding to RAGE
